Several values for one entry are separate records, joined by “and”; a condition that tells them apart may be missing. Equal values may be shown once.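 Assay format: 96-well plates, 48-hour exposure. Here, GI50 denotes the concentration required for 50% inhibition of growth.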 Activity calls are given as the source filed them. Cut-off read from the data, not from the text of the source: active = GI50 up to about 1.1 µM and inactive = higher.
Tests used:
Assay in all cases: DTP human tumour cell line panel, 48 h
786-0 = system: 786-0
A498 = system: A498
A549 = system: A549
ACHN = system: ACHN
CAKI-1 = system: CAKI-1
CCRF-CEM = system: CCRF-CEM
COLO 205 = system: COLO 205
DU-145 = system: DU-145
EKVX = system: EKVX
HCC 2998 = system: HCC 2998
HCT-116 = system: HCT-116
HCT-15 = system: HCT-15
HL-60 = system: HL-60
HOP-62 = system: HOP-62
HOP-92 = system: HOP-92
HT-29 = system: HT-29
Hs-578T = system: Hs-578T
IGROV-1 = system: IGROV-1
K562 = system: K562
KM12 = system: KM12
LOX IMVI = system: LOX IMVI
MDA-MB-231 = system: MDA-MB-231
MDA-MB-435 = system: MDA-MB-435
MDA-N = system: MDA-N
MOLT-4 = system: MOLT-4
Malme-3M = system: Malme-3M
NCI-H226 = system: NCI-H226
NCI-H23 = system: NCI-H23
NCI-H460 = system: NCI-H460
NCI-H522 = system: NCI-H522
NCI/ADR-RES = system: NCI/ADR-RES
OVCAR-4 = system: OVCAR-4
OVCAR-5 = system: OVCAR-5
OVCAR-8 = system: OVCAR-8
PC-3 = system: PC-3
RPMI-8226 = system: RPMI-8226
RXF 393 = system: RXF 393
SF-268 = system: SF-268
SF-295 = system: SF-295
SF-539 = system: SF-539
SK-MEL-28 = system: SK-MEL-28
SK-MEL-2 = system: SK-MEL-2
SK-MEL-5 = system: SK-MEL-5
SK-OV-3 = system: SK-OV-3
SN12C = system: SN12C
SNB-19 = system: SNB-19
SNB-75 = system: SNB-75
SR = system: SR
SW-620 = system: SW-620
T47D = system: T47D
TK-10 = system: TK-10
U-251 = system: U-251
UACC-257 = system: UACC-257
UACC-62 = system: UACC-62
UO-31 = system: UO-31
M14 = system: M14
MCF7 = system: MCF7
OVCAR-3 = system: OVCAR-3
BT-549 = system: BT-549

Cc1ccc(/N=C2\SC(=NN(C)C)S\C2=N/c2ccc(C)cc2)cc1
GI50 (786-0): > 100 µM (inactive) | GI50 (A498): > 100 µM (inactive) | GI50 (A549): > 100 µM (inactive) | GI50 (ACHN): > 100 µM (inactive) | GI50 (CAKI-1): > 100 µM (inactive) | GI50 (CCRF-CEM): > 100 µM (inactive) | GI50 (COLO 205): > 100 µM (inactive) | GI50 (DU-145): > 100 µM (inactive) | GI50 (EKVX): > 100 µM (inactive) | GI50 (HCC 2998): > 100 µM (inactive) | GI50 (HCT-116): > 100 µM (inactive) | GI50 (HCT-15): > 100 µM | GI50 (HL-60): > 100 µM (inactive) | GI50 (HOP-62): > 100 µM (inactive) | GI50 (HOP-92): > 100 µM (inactive) | GI50 (HT-29): > 100 µM (inactive) | GI50 (Hs-578T): > 100 µM (inactive) | GI50 (IGROV-1): > 100 µM (inactive) | GI50 (K562): > 100 µM (inactive) | GI50 (KM12): > 100 µM (inactive) | GI50 (LOX IMVI): > 100 µM (inactive) | GI50 (MDA-MB-231): > 100 µM (inactive) | GI50 (MDA-MB-435): > 100 µM (inactive) | GI50 (MDA-N): > 100 µM (inactive) | GI50 (MOLT-4): > 100 µM (inactive) | GI50 (Malme-3M): > 100 µM (inactive) | GI50 (NCI-H226): > 100 µM (inactive) | GI50 (NCI-H23): > 100 µM (inactive) | GI50 (NCI-H460): > 100 µM (inactive) | GI50 (NCI-H522): 4.71 µM (inactive) | GI50 (NCI/ADR-RES): > 100 µM (inactive) | GI50 (OVCAR-4): > 100 µM (inactive) | GI50 (OVCAR-5): > 100 µM (inactive) | GI50 (OVCAR-8): > 100 µM (inactive) | GI50 (PC-3): > 100 µM (inactive) | GI50 (RPMI-8226): > 100 µM (inactive) | GI50 (RXF 393): > 100 µM (inactive) | GI50 (SF-268): > 100 µM (inactive) | GI50 (SF-295): > 100 µM (inactive) | GI50 (SF-539): > 100 µM (inactive) | GI50 (SK-MEL-28): > 100 µM (inactive) | GI50 (SK-MEL-2): > 100 µM (inactive) | GI50 (SK-MEL-5): > 100 µM (inactive) | GI50 (SK-OV-3): > 100 µM (inactive) | GI50 (SN12C): > 100 µM (inactive) | GI50 (SNB-19): > 100 µM (inactive) | GI50 (SNB-75): > 100 µM (inactive) | GI50 (SR): > 100 µM (inactive) | GI50 (SW-620): > 100 µM (inactive) | GI50 (T47D): > 100 µM (inactive) | GI50 (TK-10): > 100 µM (inactive) | GI50 (U-251): > 100 µM (inactive) | GI50 (UACC-257): > 100 µM (inactive) | GI50 (UACC-62): > 100 µM (inactive) | GI50 (UO-31): > 100 µM (inactive)

CCP(=O)(CC)C(Cl)(Cl)C(O)C(Cl)(Cl)Cl (stereo unspecified)
GI50 (A549): > 100 µM (inactive) | GI50 (ACHN): > 100 µM (inactive) | GI50 (CAKI-1): > 100 µM (inactive) | GI50 (CCRF-CEM): > 100 µM (inactive) | GI50 (COLO 205): > 100 µM (inactive) | GI50 (DU-145): > 100 µM (inactive) | GI50 (HCC 2998): > 100 µM (inactive) | GI50 (HCT-116): > 100 µM (inactive) | GI50 (HCT-15): > 100 µM | GI50 (HL-60): > 100 µM (inactive) | GI50 (HOP-62): > 100 µM (inactive) | GI50 (HOP-92): > 100 µM (inactive) | GI50 (HT-29): > 100 µM (inactive) | GI50 (Hs-578T): > 100 µM (inactive) | GI50 (IGROV-1): > 100 µM (inactive) | GI50 (K562): > 100 µM (inactive) | GI50 (LOX IMVI): > 100 µM (inactive) | GI50 (M14): > 100 µM (inactive) | GI50 (MCF7): > 100 µM (inactive) | GI50 (MDA-MB-231): > 100 µM (inactive) | GI50 (MDA-N): > 100 µM (inactive) | GI50 (MOLT-4): > 100 µM (inactive) | GI50 (NCI-H226): > 100 µM (inactive) | GI50 (NCI-H23): > 100 µM (inactive) | GI50 (NCI-H460): > 100 µM (inactive) | GI50 (NCI-H522): > 100 µM (inactive) | GI50 (NCI/ADR-RES): > 100 µM (inactive) | GI50 (OVCAR-3): > 100 µM (inactive) | GI50 (OVCAR-4): > 100 µM (inactive) | GI50 (OVCAR-5): > 100 µM (inactive) | GI50 (OVCAR-8): > 100 µM (inactive) | GI50 (PC-3): > 100 µM (inactive) | GI50 (RPMI-8226): > 100 µM (inactive) | GI50 (SF-295): > 100 µM (inactive) | GI50 (SK-MEL-28): > 100 µM (inactive) | GI50 (SK-MEL-2): > 100 µM (inactive) | GI50 (SK-MEL-5): > 100 µM (inactive) | GI50 (SK-OV-3): > 100 µM (inactive) | GI50 (SN12C): > 100 µM (inactive) | GI50 (SNB-19): > 100 µM (inactive) | GI50 (SNB-75): > 100 µM (inactive) | GI50 (SR): > 100 µM (inactive) | GI50 (SW-620): > 100 µM (inactive) | GI50 (T47D): > 100 µM (inactive) | GI50 (TK-10): > 100 µM (inactive) | GI50 (U-251): > 100 µM (inactive) | GI50 (UACC-257): > 100 µM (inactive) | GI50 (UO-31): > 100 µM (inactive)

C=CCN1C(=O)/C(=C/c2ccc(C)cc2)N=C1SC1OC(COC(C)=O)C(OC(C)=O)C(OC(C)=O)C1OC(C)=O (stereo unspecified)
GI50 (786-0): 3.4 µM (inactive) | GI50 (A549): > 100 µM (inactive) | GI50 (BT-549): 25.3 µM (inactive) and 23.3 µM (inactive) | GI50 (COLO 205): 59.4 µM (inactive) | GI50 (DU-145): 33.9 µM (inactive) and > 45.3 µM (inactive) | GI50 (EKVX): 51.8 µM (inactive) | GI50 (HCT-116): 34.1 µM (inactive) | GI50 (HL-60): > 76.4 µM (inactive) | GI50 (HT-29): > 100 µM (inactive) | GI50 (M14): 68.7 µM (inactive) | GI50 (MCF7): 39.4 µM (inactive) and 34.8 µM (inactive) | GI50 (MDA-MB-231): 28.7 µM (inactive) and 27.5 µM (inactive) | GI50 (MDA-N): > 100 µM (inactive) | GI50 (Malme-3M): 39.2 µM (inactive) | GI50 (OVCAR-4): 7.83 µM (inactive) | GI50 (OVCAR-5): 53.2 µM (inactive) and > 82.8 µM (inactive) | GI50 (RXF 393): 11.6 µM (inactive) and 8.43 µM (inactive) | GI50 (SF-295): 60.1 µM (inactive) | GI50 (SK-MEL-28): > 100 µM (inactive) | GI50 (SN12C): > 100 µM (inactive) | GI50 (SNB-19): > 100 µM (inactive) | GI50 (T47D): 14.4 µM (inactive) | GI50 (TK-10): > 100 µM (inactive)

— ChEMBL document CHEMBL1201862, “PubChem BioAssay data set” (2004)
